Laboratory results published in publication PMC8123555, “Precision targeting of the plasminogen activator inhibitor‐1 mechanism increases efficacy of fibrinolytic therapy in empyema” (Physiological Reports, 2021).

Assays:
Assay type in all cases: in vivo, rabbit
[1] = system: Streptococcus pneumoniae induced empyema; test: Fibrinolytic therapy of S. pneumoniae induced empyema in rabbits (GLIS, pleural thickening, WBC differential)
Experimental: All animal procedures were approved by the Institutional Animal Care and Use Committee at The University of Texas Health Science Center at Tyler (IACUC protocols 499,616,617). Studies used female, pathogen‐free New Zealand white rabbits (3.0–3.6 kg; average age 18 weeks) from Charles River Laboratories (Wilmington, MA). These studies required a total of 107 rabbits, 43 for the model of TCN‐induced pleural injury and 64 for the model of empyema. […] Briefly, a 3 ml mixture of TCN in ascorbic acid (20 mg/ml TCN (T3258, Sigma‐Aldrich), 2.5 mg/ml ascorbic acid (A7506, Sigma‐Aldrich) and lidocaine (1 mg/ml, UTHCT Compounding Pharmacy), was delivered by intrapleural injection. A model of acute empyema in rabbits was induced as described previously (Komissarov et al., 2016). Briefly, 1–5 × 10^8 cfu of S. pneumoniae (D39 strain, National Collection of Type Cultures, Salisbury UK) in 3 ml of 0.5% brain‐heart infusion agar (BD 238400, BD Diagnostic Systems) was delivered by intrapleural injection. Clavomox (10 mg/kg, subcutaneous, daily for 1–3 days as clinically indicated by Attending Veterinarian) (10000485, Zoetis) was started at 28–30 h post‐infection. Accumulation of pleural fluid and fibrin deposition was monitored using ultrasonography; detailed in the ultrasonography subsection. After 48 or 72 h for TCN‐induced pleural injury and empyema, respectively, intrapleural therapeutics were administered depending on treatment group via an 18‐gauge catheter, which was flushed with 0.5 ml PBS. In all experiments, samples of pleural fluids (0.5 ml) from each rabbit were collected prior to and at 10, 20, and 40 min after PAI‐1‐TFT and processed for later analysis (Florova et al., 2015; Karandashova et al., 2013; Komissarov et al., 2013, 2016). Anesthesia, postoperative pain medication, and animal care were provided as reported previously (Florova et al., 2015; Karandashova et al., 2013; Komissarov et al., 2013, 2016). with details provided in the supplement. Animals were monitored carefully for signs of distress, pain, and worsening clinical status. Euthanasia was accomplished using intravenous injection of 1 ml of commercial euthanasia solution (sodium pentobarbital 390 mg/ml and phenytoin 50 mg/ml) followed by exsanguination.
Development of pleural injury was monitored via ultrasonography. Briefly, B‐mode ultrasonography of the chest was performed (Komissarov et al., 2013, 2015) using a Logiq e system (GE Healthcare, Milwaukee, WI) using R5.2.x software and a multifrequency transducer model 12L‐RS at a working frequency of 10 MHz, as previously described (Komissarov et al., 2016).
For each animal, gross lung injury scores (GLIS) were calculated as previously described (Florova et al., 2015; Karandashova et al., 2013; Komissarov et al., 2013). PAI‐1‐TFT was considered successful when GLIS ≤10. Multiple fibrin webs or sheets connecting the visceral and parietal pleura or “too numerous to count” (TNTC) strands and a fibrinous lung coating correlated with a GLIS = 50. Pleural thickening was measured using morphometry, as previously described (Komissarov et al., 2016).

[2] = system: chemically induced (TCN) pleural injury; test: Fibrinolytic therapy of TCN-induced pleural injury in rabbits (GLIS, pleural thickening); details: outcome at 24 h
Excerpt: All animal procedures were approved by the Institutional Animal Care and Use Committee at The University of Texas Health Science Center at Tyler (IACUC protocols 499,616,617). Studies used female, pathogen‐free New Zealand white rabbits (3.0–3.6 kg; average age 18 weeks) from Charles River Laboratories (Wilmington, MA). These studies required a total of 107 rabbits, 43 for the model of TCN‐induced pleural injury and 64 for the model of empyema. […] Accumulation of pleural fluid and fibrin deposition was monitored using ultrasonography; detailed in the ultrasonography subsection. […] Animals were monitored carefully for signs of distress, pain, and worsening clinical status. […]
Development of pleural injury was monitored via ultrasonography. […]
For each animal, gross lung injury scores (GLIS) were calculated as previously described (Florova et al., 2015; Karandashova et al., 2013; Komissarov et al., 2013). […] Pleural thickening was measured using morphometry, as previously described (Komissarov et al., 2016).

FITC‐fibrin = test: Fibrinolytic activity in pleural fluids (FITC-fibrin film assay), TCN-induced injury; details: PAI-1-TFT with 2.0 mg/kg DSP, chemically induced injury; for Steady-state level of pleural fluid fibrinolytic activity: relative to supplemented baseline
Experimental: A Pilot Fibrinolytic Assay (FPA96F) was used to measure fibrinolytic potential (Beckert et al., 2019; Florova et al., 2015) and fibrinolytic activity (Florova et al., 2015, 2018; Komissarov et al., 2016) in pleural fluid samples. To prepare a FITC‐fibrin film, a 1:1 mixture of FITC‐tagged and unlabeled fibrinogen (0.4 mg/ml) in 0.05 M Hepes/NaOH (pH 7.5, 130 mM NaCl, 5 mM CaCl2) buffer at room temperature was transferred to black 96‐well flat bottom plates from Costar (Corning Inc, NY). Human thrombin (final concentration 10 nM) was added to each well and plates were dried overnight in a dark chemical hood at room temperature. 96‐well plates with FITC‐fibrin film were washed three times with 0.3 ml of cold Hepes/NaOH buffer and stored at −20°C up to one year. Fibrinolytic activity in pleural fluids was calculated from the slopes of time‐dependences of an increase in the fluorescence emission at 512 nm (excitation at 490 nm) due to the degradation of FITC‐fibrin. Fibrinolytic potential was determined as the difference between fibrinolytic activity in samples of pleural fluid at baseline (BL) or 24 h measured with and without supplementation with sctPA (Florova et al., 2015). To determine whether PAI‐1‐TFT affects fibrinolytic potential in rabbits, BL values were plotted against fibrinolytic potential at 24 h and the linear correlation was determined using Sigmaplot 14.0.

[3] = plasminogen activator 0.5 mg/kg alone, empyema

Substance | Outcome of fibrinolytic therapy (GLIS) [1, 3] | Outcome of fibrinolytic therapy (GLIS) ([1]; sctPA 0.25 mg/kg alone, acute empyema) | GLIS of representative animal ([1]; sctPA 0.25 mg/kg alone, photograph 24 h after treatment) | Minimal effective dose (MED) of sctPA with DSP ([1]; with 8.0 mg/kg DSP, acute empyema) | Gross lung injury score (GLIS) ([2]; sctPA 72.5 µg/kg alone (1/2 of MED), n = 5) | kobs of decrease in pleural fluid fibrinolytic activity to steady state (FITC‐fibrin) | Steady-state level of pleural fluid fibrinolytic activity (FITC‐fibrin) | Gross lung injury score (GLIS) ([2]; scuPA 62.5 µg/kg alone (1/8 of MED), n = 6)
Alteplase [sctPA, reference compound] | ineffective | ineffective | 50 | 0.25 mg/kg | > 10 | 0.40 ± 0.11 min⁻¹ | 2.7% | 
Prourokinase [scuPA] | ineffective |  |  |  |  | 0.09 ± 0.06 min⁻¹ | 5.6% | > 10
